Test results as given in ChEMBL document CHEMBL1201862, “PubChem BioAssay data set” (2004).
Activity calls are given as the source filed them. Rule as the data show it, for most assays here: actives have a measured EC50 and inactives only a lower limit.

Columns and labels:
[1] = system: Vero; test: Vero cell cytotoxicity, cytotoxicity control for flavivirus capping enzyme inhibitors (AID 588742); format: functional; conditions: Chlorocebus sabaeus
[2] = system: BJ; test: cytotoxicity toward BJ-TERT-LT-ST fibroblasts, dose response, cell-based, RAS-independent, luminescence (AID 1935); format: functional; conditions: Homo sapiens;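 also: BJ fibroblasts immortalized with TERT plus LT and ST oncogenes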
[3] = target: T1, Protein RecA (Mycobacterium tuberculosis, UniProt P9WHJ3); test: Fluorescence Cell-Free Homogeneous Dose Retest to Identify Inhibitors of RecA-Intein Splicing Activity. [Related pubchem assays (depositor defined):AID2097, AID2223, AID489010, AID492950]; format: functional
T1 sequence (P9WHJ3 whole entry): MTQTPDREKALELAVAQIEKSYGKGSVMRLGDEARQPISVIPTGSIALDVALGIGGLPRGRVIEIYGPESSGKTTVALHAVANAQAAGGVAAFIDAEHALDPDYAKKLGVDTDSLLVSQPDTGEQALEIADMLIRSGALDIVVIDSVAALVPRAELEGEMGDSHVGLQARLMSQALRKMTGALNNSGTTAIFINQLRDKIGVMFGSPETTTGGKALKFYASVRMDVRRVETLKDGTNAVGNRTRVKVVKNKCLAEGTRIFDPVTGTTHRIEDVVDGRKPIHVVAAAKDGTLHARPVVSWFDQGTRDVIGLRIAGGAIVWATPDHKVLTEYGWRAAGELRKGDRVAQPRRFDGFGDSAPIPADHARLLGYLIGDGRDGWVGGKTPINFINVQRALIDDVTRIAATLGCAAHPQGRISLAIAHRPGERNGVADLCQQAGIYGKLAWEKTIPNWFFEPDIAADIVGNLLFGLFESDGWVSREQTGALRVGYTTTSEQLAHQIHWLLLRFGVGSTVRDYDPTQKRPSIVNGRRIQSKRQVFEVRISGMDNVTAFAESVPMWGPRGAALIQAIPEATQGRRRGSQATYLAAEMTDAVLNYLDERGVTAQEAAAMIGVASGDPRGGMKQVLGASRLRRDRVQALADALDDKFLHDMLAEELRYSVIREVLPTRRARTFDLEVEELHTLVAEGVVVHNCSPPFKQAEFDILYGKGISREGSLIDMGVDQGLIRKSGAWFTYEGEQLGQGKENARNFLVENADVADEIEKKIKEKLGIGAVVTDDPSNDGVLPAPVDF

[4] = system: BJ; test: cytotoxicity toward BJ-TERT fibroblasts, dose response, cell-based, RAS-independent, luminescence (AID 1933); format: functional; conditions: Homo sapiens
[5] = system: BJ; test: cytotoxicity toward Ras-transformed BJeLR fibroblasts, dose response, cell-based, alamar blue fluorescence, cherrypicked samples (AID 2631); format: functional; conditions: Homo sapiens;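 also: confirmatory dose-response assay in RAS-dependent BJ fibroblasts engineered with TERT, LT and ST, with cytotoxicity read by fluorescence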
[6] = cytotoxicity toward DRD oncogenic fibroblasts, dose response, cell-based, non-viral oncogenic, luminescence (AID 1934); format: functional; conditions: Homo sapiens
[7] = target: T2, Replicative DNA helicase DnaB (Mycobacterium tuberculosis, UniProt P9WMR3); test: DnaB intein splicing inhibitors, dose response, biochemical, cell-free fluorescence (AID 449749); format: functional
T2 sequence (P9WMR3 whole entry): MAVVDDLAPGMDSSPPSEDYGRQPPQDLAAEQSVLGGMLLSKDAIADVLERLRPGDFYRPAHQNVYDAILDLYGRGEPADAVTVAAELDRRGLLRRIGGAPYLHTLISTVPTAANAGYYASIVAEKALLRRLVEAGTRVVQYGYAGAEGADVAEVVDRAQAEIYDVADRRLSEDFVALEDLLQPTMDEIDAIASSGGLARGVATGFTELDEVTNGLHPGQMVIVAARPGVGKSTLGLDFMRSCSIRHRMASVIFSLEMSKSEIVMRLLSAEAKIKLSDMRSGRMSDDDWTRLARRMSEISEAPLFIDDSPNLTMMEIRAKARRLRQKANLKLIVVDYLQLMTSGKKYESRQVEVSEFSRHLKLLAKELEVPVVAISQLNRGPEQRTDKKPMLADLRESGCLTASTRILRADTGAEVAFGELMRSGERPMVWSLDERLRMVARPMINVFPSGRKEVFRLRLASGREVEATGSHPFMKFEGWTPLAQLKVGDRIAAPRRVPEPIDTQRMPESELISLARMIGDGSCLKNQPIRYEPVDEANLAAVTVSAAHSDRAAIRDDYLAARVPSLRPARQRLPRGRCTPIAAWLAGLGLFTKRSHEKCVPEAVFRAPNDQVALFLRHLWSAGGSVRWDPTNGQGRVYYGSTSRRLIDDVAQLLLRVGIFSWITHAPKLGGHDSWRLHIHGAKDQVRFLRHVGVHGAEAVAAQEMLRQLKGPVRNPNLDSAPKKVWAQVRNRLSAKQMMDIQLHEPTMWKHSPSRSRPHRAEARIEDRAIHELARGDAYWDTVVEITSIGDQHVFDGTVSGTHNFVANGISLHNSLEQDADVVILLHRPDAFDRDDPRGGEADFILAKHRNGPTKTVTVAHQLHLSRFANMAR

[8] = system: BJ; test: cells; format: functional, cell-based; conditions: Homo sapiens
[9] = target: T3, Apoptotic protease-activating factor 1 (Homo sapiens, UniProt O14727); format: functional
T3 sequence (O14727 whole entry): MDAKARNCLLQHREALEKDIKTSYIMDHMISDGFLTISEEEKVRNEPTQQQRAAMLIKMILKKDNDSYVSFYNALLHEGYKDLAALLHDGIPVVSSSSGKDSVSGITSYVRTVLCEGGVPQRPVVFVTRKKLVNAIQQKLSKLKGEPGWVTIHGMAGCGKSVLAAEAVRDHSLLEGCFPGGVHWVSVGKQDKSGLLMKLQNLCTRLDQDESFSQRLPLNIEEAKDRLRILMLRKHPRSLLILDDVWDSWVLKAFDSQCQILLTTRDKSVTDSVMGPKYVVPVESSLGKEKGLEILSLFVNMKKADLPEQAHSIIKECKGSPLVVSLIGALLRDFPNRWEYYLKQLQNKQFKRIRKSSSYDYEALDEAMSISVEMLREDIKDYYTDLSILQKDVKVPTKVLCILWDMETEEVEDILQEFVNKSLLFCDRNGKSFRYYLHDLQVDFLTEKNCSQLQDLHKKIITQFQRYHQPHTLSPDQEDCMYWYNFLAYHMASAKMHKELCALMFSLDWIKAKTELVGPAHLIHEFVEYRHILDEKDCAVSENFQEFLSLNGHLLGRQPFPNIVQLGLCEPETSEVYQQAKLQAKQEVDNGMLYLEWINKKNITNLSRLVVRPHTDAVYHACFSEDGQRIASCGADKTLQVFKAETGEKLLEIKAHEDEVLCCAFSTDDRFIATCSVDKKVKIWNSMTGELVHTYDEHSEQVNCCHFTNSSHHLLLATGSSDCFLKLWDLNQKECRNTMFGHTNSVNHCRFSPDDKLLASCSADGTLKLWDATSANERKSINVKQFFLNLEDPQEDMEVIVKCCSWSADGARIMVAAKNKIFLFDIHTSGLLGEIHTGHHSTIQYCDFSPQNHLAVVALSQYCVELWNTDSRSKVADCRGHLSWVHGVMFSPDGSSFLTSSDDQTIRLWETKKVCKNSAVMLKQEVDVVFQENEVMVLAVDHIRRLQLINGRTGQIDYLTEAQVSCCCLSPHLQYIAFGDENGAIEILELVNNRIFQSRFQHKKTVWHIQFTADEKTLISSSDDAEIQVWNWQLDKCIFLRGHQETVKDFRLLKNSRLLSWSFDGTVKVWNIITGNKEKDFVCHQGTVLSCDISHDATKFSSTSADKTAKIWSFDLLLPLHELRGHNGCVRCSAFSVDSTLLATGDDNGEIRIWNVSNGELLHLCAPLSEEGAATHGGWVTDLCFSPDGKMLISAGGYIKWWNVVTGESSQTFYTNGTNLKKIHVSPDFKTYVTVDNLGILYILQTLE

[10] = system: Streptococcus sp. 'group A'; test: growth inhibition of control SK(-) GAS strain, dose response, counter-screen for streptokinase expression inhibitor project, luminescence, kanamycin, BacTiterGlo, confirmation (AID 1900); format: functional, organism-based
[11] = target: T4, Streptokinase A (Streptococcus pyogenes serotype M1, UniProt P10520); test: S. pyogenes streptokinase expression inhibitors, potency, dose response, plasminogen activation absorbance, OD405 (AID 1914); format: functional, Streptococcus pyogenes M1 GAS;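 also: secreted streptokinase activity via plasminogen activation per viability signal from cell pellet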
T4 sequence (P10520 whole entry): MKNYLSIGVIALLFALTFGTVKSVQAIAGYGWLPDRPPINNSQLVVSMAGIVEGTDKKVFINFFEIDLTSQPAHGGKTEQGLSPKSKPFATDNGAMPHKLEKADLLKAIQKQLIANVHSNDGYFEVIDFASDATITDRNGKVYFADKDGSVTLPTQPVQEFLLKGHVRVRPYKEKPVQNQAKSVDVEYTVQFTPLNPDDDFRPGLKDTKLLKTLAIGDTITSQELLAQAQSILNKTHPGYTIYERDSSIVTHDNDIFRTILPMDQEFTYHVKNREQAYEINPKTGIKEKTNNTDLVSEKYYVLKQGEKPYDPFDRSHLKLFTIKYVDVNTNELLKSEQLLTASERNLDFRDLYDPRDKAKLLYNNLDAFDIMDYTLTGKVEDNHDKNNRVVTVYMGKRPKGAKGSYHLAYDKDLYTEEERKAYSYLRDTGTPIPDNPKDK

[12] = system: Streptococcus; test: Group A Streptococcus viability loss, dose response, counter-screen for streptokinase expression inhibitor project, luminescence, BacTiterGlo (AID 1915); format: functional, organism-based;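 also: potency for reduction of bacterial viability or growth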
[13] = system: INS1; test: beta cell apoptosis inhibitors, cytokine rescue, dose response, luminescence, retest (AID 449756); format: functional, cell-based; conditions: Rattus norvegicus;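 also: cell death triggered by IL-1 beta plus TNF-alpha plus IFN-gamma mixture; protective hits raise ATP signal compared with cytokine alone wells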
[14] = target: T5, DNA repair protein RAD52 homolog (Homo sapiens, UniProt P43351); format: functional, biochemical
T5 sequence (P43351 whole entry): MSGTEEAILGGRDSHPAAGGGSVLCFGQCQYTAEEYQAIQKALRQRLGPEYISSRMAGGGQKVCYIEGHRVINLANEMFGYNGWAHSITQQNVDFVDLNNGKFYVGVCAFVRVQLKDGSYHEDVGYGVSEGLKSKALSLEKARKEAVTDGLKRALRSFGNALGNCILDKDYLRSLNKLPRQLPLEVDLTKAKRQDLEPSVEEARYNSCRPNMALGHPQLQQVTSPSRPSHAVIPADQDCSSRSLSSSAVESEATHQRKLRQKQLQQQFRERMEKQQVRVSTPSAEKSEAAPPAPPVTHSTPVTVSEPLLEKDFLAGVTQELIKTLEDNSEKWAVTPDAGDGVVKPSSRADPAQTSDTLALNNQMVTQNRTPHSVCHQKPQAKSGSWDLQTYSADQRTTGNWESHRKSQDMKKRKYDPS

[15] = target: T6, Ubiquitin-conjugating enzyme E2 N (Homo sapiens, UniProt P61088); format: functional;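 also: Dose-response confirmation in a TR-FRET assay detecting UBC13-driven polyubiquitin chain formation, inhibition measured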
T6 sequence (P61088 whole entry): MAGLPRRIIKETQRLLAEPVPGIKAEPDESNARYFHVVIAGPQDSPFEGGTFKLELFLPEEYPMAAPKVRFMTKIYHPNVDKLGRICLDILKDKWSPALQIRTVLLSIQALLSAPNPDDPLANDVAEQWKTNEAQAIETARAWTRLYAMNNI

| Compound | CC50 [1] | EC50 [2] | EC50 [4] | EC50 [5] | EC50 [6] | EC50 [8] | other results |
| --- | --- | --- | --- | --- | --- | --- | --- |
| CCCN1C(=O)/C(=C\C=C2/C=CN(CC)c3ccccc32)SC1=S | > 40 µM (active) | – | – | – | – | – | – |
| CCSc1cc(C2C(C#N)=C(N)Oc3[nH]nc(C)c32)c(C)o1 (stereo unspecified) | – | > 150 µM (not active) | 25.5 µM (active) | 8.45 µM (active) | 14.7 µM (active) | 17.7 µM (active) | EC50 [3]: 3.29 µM (active); AC50 [7]: 10.3 µM (active) |
| CCc1ccc(NC(=S)Nc2cccc3cnccc23)cc1 | – | – | – | – | – | – | IC50 [9]: 20 µM (active) |
| COc1ccc(NC(S)=NNc2ccc([N+](=O)[O-])cc2S(=O)(=O)Nc2ccc(C)cc2C)cc1 | 12.2 µM (active) | – | – | – | – | – | EC50 [10]: 6.57 µM (active); EC50 [11]: > 150 µM (not active); EC50 [12]: 37.7 µM (active) |
| COc1ccc(C2c3ccc4ccccc4c3Oc3ncn(CCCN(C)C)c(=N)c32)cc1 (stereo unspecified) | – | 4.18 µM (active) | 5.07 µM (inconclusive) | 2.86 µM (inconclusive) | 4.43 µM (active) | 7.71 µM (active) | AC50 [13]: 7.32 µM (active); AC50 [14]: 2.33 µM (active); IC50 [15]: > 20 µM (inactive) |
